Measured values from publication PMC3319690 (Journal of Immunology (Baltimore, Md. : 1950), 2008).

Experiments:
CD8^+ T cells [1] = conditions: mouse, in vivo
CD8^+ T cells [2] = conditions: mouse, in vivo; remark: listed apart in the source
CD8^+ T cells [3] = type: in vivo, mouse
CD8^+ T cells [4] = conditions: mouse, in vivo; remark: listed apart in the source
[5] = tested on: naive, epitope-specific precursor CD8^+ T cells; set-up: species or system mouse; conditions: for Naive epitope-specific CD8^+ T cells per mouse: spleen and lymph nodes of individual naive H-2^b mice, average, n = 15–19, tetramer-based enrichment
[6] = tested on: naive, epitope-specific precursor CD8^+ T cells; conditions: indirect titration of TCR transgenic T cells; cited from earlier work

Row | Substance | IFN-γ response to wild-type epitopes in GPVNPV-inoculated mice (CD8^+ T cells [1]) | CD8^+ T cell response in F1 hybrid mice (CD8^+ T cells [2]) | Response to single peptide immunization relative to peptide pool immunization (CD8^+ T cells [3]; Fig. 8A vs Fig. 6, wild-type GP33–41 peptide) [fold] | CD8^+ T cell response after peptide pool immunization (CD8^+ T cells [3]; pool of 28 peptides, day 11–12, H-2^b mice) | CD8^+ T cell response in rVACV-immunized mice (CD8^+ T cells [4]) | Precursor frequency relative to NP396–404/D^b-specific precursors ([5]; naive H-2^b mice) [fold] | Naive epitope-specific CD8^+ T cells per mouse [5] [CD8^+ T cells] | Previous estimate of GP33–41/D^b-specific precursors [6]
1 | GP276–286 (SGVENPGGYCL; UniProt P09991 276-286, looked up, fragment) | significantly diminished amounts of IFN-γ | – | – | – | – | – | – | –
2 | GP33–41 | significantly diminished amounts of IFN-γ | still elicited robust T cell responses | ~2 | relatively strongly recognized | the LCMV-specific response remained focused on the major dominant epitopes | 4 | 449 | 100–200 precursors
3 | NP205–212 (YTVKYPNL; UniProt P09992 205-212, looked up, fragment) | – | – | – | – | – | – | 57 | –
